This note sets out measurements from patent US9790230B2 (Hoffmann-La Roche Inc., priority 2015, dated 2017).

For one assay, the target named is mouse TAAR1 (Mus musculus (Mouse), UniProt Q923Y8). As to the kind of experiment: Radioligand binding assay on mouse TAAR1.
The target of the next assay is rat TAAR1 (Rattus norvegicus (Rat), UniProt Q923Y9). As to the kind of experiment: Radioligand binding assay on rat TAAR1.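 Also: membranes from HEK293 cells stably transfected with rat TAAR1, tritiated TAAR1 radioligand, 1 h incubation at 4 °C, nonspecific binding determined with excess unlabeled ligand.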
Where [1] appears, read: read-out: Ki (μM) mouse, mouse TAAR1, HEK-293 membranes, first value of cell mouse/rat.
[2] abbreviates: read-out: Ki (μM) rat, rat TAAR1, HEK-293 membranes, second value of cell mouse/rat.

Like-named read-outs stand apart in the source and are kept apart here.

Sequence of rat TAAR1 (Q923Y9 whole entry): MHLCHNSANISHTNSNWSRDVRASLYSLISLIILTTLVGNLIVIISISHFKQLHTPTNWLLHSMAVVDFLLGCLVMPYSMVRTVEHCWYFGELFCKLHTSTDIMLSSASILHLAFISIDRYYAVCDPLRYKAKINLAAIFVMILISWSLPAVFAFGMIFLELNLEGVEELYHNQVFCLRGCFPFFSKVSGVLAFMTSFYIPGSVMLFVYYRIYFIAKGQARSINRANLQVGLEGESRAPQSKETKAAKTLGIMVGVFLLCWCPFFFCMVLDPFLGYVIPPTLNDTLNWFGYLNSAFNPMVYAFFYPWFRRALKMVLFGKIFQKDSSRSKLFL
Sequence of mouse TAAR1 (Q923Y8 whole entry): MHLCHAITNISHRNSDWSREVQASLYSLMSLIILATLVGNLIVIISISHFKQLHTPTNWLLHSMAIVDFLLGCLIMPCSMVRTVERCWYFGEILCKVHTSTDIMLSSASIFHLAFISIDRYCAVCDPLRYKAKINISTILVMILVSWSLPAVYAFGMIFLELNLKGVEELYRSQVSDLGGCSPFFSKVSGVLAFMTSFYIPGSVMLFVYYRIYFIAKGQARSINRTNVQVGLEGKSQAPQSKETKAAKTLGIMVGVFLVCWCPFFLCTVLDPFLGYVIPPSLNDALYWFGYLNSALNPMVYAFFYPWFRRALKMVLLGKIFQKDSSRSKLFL
Experimental for mouse TAAR1: Radioligand Binding Assay on Mouse TAAR1
Membrane Preparation and Radioligand Binding.
HEK-293 cells stably expressing mouse TAAR1 were maintained at 37° C. and 5% CO2 in DMEM high glucose medium, containing fetal calf serum (10%, heat inactivated for 30 min at 56° C.), penicillin/streptomycin (1%), and 375 μg/ml geneticin (Gibco). Cells were released from culture flasks using trypsin/EDTA, harvested, washed twice with ice-cold PBS (without Ca^2+ and Mg^2+), pelleted at 1'000 rpm for 5 min at 4° C., frozen and stored at −80° C. Frozen pellets were suspended in 20 ml HEPES-NaOH (20 mM, pH 7.4) containing 10 mM EDTA and homogenized with a Polytron (PT 6000, Kinematica) at 14'000 rpm for 20 s. The homogenate was centrifuged at 48'000×g for 30 min at 4° C. Subsequently, the supernatant was removed and discarded, and the pellet resuspended in 20 ml HEPES-NaOH (20 mM, pH 7.4) containing 0.1 mM EDTA using the Polytron (20 s at 14'000 rpm). This procedure was repeated and the final pellet resuspended in HEPES-NaOH containing 0.1 mM EDTA and homogenized using the Polytron. Typically, aliquots of 2 ml membrane portions were stored at −80° C. With each new membrane batch the dissociation constant (Kd) was determined via a saturation curve. The TAAR1 radioligand ^3[H]—(S)-4-[(ethyl-phenyl-amino)-methyl]-4,5-dihydro-oxazol-2-ylamine (described in WO 2008/098857) was used at a concentration equal to the calculated Kd value, that was usually around 0.7 nM, resulting in the binding of approximately 0.5% of the radioligand and a specific binding representing approximately 70% of the total binding. Nonspecific binding was defined as the amount of ^3[H]—(S)-4-[(ethyl-phenyl-amino)-methyl]-4,5-dihydro-oxazol-2-ylamine bound in the presence of 10 M unlabeled ligand. All compounds were tested at a broad range of concentrations (10 pM to 10 μM) in duplicates. […] The 96 deep well plates were incubated for 1 hr at 4° C. Incubations were terminated by rapid filtration through Unifilter-96 plates (Packard Instrument Company) and glass filters GF/C (Perkin Elmer) presoaked for 1 hr in polyethylenimine (0.3%) and washed 3 times with 1 ml of cold binding buffer. After addition of 45 μl of Microscint 40 (PerkinElmer) the Unifilter-96 plate was sealed and after 1 hr the radioactivity counted using a TopCount Microplate Scintillation Counter (Packard Instrument Company).

Turning to `Clc1ccc(CNc2ccc([C@H]3O[C@@H]4CN[C@H]3C4)cc2)cc1` [Example 38, N-[(4-Chlorophenyl)methyl]-4-[(1S,3R,4S)-2-oxa-5-azabicyclo[2.2.1]heptan-3-yl]aniline], the Ki (as a rule, the dissociation constant of the complex between target and ligand, obtained from inhibition or displacement) on mouse TAAR1 was determined as 0.562 µM; on rat TAAR1, 0.167 µM.
On the same counts, the results for `c1ccc([C@H]2O[C@@H]3CN[C@H]2C3)cc1` [Example 9, (1S,3R,4S)-3-Phenyl-2-oxa-5-azabicyclo[2.2.1]heptane] are 0.0349 µM and 0.369 µM.
`O=C(COCC(F)(F)F)Nc1ccc([C@@H]2O[C@H]3CN[C@@H]2C3)cc1` [Example 73, N-[4-[(1R,3S,4R)-2-Oxa-5-azabicyclo[2.2.1]heptan-3-yl]phenyl]-2-(2,2,2-trifluoroethoxy)acetamide]: the values for the Ki at mouse TAAR1 and on rat TAAR1 were 0.0177 µM and 0.857 µM, respectively.
`c1ccc([C@H]2O[C@@H]3CN[C@H]2C3)nc1` [Example 105, (1S,3S,4S)-3-(2-Pyridyl)-2-oxa-5-azabicyclo[2.2.1]heptane]: the Ki was found to be 0.0465 µM at mouse TAAR1 and 0.324 µM at rat TAAR1.
On the same counts, the results for `O=C(Nc1ccc(Br)cc1)c1ccc([C@H]2O[C@@H]3CN[C@H]2C3)cc1` [Example 56, N-(4-Bromophenyl)-4-[(1S,3R,4S)-2-oxa-5-azabicyclo[2.2.1]heptan-3-yl]benzamide] are 0.0009 µM and 0.0501 µM.
For `CCCc1c(Cl)c(C(=O)Nc2ccc([C@H]3O[C@@H]4CN[C@H]3C4)cc2)nn1C` [Example 48, 4-Chloro-1-methyl-N-[4-[(1S,3R,4S)-2-oxa-5-azabicyclo[2.2.1]heptan-3-yl]phenyl]-5-propyl-pyrazole-3-carboxamide] the same measures were 0.0114 µM and 1.35 µM.
As to `FC(F)(F)c1cnc(Nc2ccc([C@@H]3O[C@H]4CN[C@@H]3C4)cc2)cn1` [Example 30, N-[4-[(1R,3S,4R)-2-Oxa-5-azabicyclo[2.2.1]heptan-3-yl]phenyl]-5-(trifluoromethyl)pyrazin-2-amine], the inhibition constant (Ki) at mouse TAAR1 was 0.0291 µM; on rat TAAR1, 0.276 µM.
For `O=C(Nc1ccc([C@H]2O[C@@H]3CN[C@H]2C3)cc1)c1ccc(Cl)cc1` [Example 14, 4-Chloro-N-[4-[(1S,3R,4S)-2-oxa-5-azabicyclo[2.2.1]heptan-3-yl]phenyl]benzamide] the same measures were 0.005 µM and 0.192 µM.
Consider `O=C(Nc1ccc([C@H]2O[C@@H]3CN[C@H]2C3)cc1)c1ccnc(C(F)(F)F)n1` [Example 42, N-[4-[(1S,3R,4S)-2-Oxa-5-azabicyclo[2.2.1]heptan-3-yl]phenyl]-2-(trifluoromethyl)pyrimidine-4-carboxamide], for which the Ki on mouse TAAR1 worked out at 0.337 µM; on rat TAAR1, 10 µM.
For `O=C(Nc1ccc([C@H]2O[C@@H]3CN[C@H]2C3)cc1)c1cccc(Cl)c1` [Example 8, 3-Chloro-N-[4-[(1S,3R,4S)-2-oxa-5-azabicyclo[2.2.1]heptan-3-yl]phenyl]benzamide] the same measures were 0.0046 µM and 0.21 µM.
On the same counts, the results for `O=C(Nc1ccc([C@@H]2O[C@H]3CN[C@@H]2C3)cc1)c1cccc(Cl)c1` [Example 10, 3-Chloro-N-[4-[(1R,3S,4R)-2-oxa-5-azabicyclo[2.2.1]heptan-3-yl]phenyl]benzamide] are 0.0042 µM and 0.055 µM.
For `Clc1ccc(Nc2ccc([C@H]3O[C@@H]4CN[C@H]3C4)cc2)nc1` [Example 20, 5-Chloro-N-[4-[(1S,3R,4S)-2-oxa-5-azabicyclo[2.2.1]heptan-3-yl]phenyl]pyridin-2-amine] the same measures were 0.0041 µM and 0.397 µM.
Consider `O=C(Nc1ccc(C(F)(F)F)cc1)Nc1cccc([C@@H]2O[C@H]3CN[C@@H]2C3)c1` [Example 3, 1-[3-[(1R,3S,4R)-2-Oxa-5-azabicyclo[2.2.1]heptan-3-yl]phenyl]-3-[4-(trifluoromethyl)phenyl]urea], for which the Ki at mouse TAAR1 worked out at 0.986 µM; at rat TAAR1, 0.0029 µM.
For `CCOc1ccc(NC(=O)c2ccc([C@H]3O[C@@H]4CN[C@H]3C4)cc2)cn1` [Example 62, N-(6-Ethoxy-3-pyridyl)-4-[(1S,3R,4S)-2-oxa-5-azabicyclo[2.2.1]heptan-3-yl]benzamide] the same measures were 0.0049 µM and 0.107 µM.
As to `O=C(Nc1ccc([C@H]2O[C@@H]3CN[C@H]2C3)cc1)c1ccc(C(F)(F)F)nc1` [Example 44, N-[4-[(1S,3R,4S)-2-Oxa-5-azabicyclo[2.2.1]heptan-3-yl]phenyl]-6-(trifluoromethyl)pyridine-3-carboxamide], the Ki at mouse TAAR1 was determined as 0.0111 µM; at rat TAAR1 it was 0.0848 µM.
For `c1ccc([C@@H]2O[C@H]3CN[C@@H]2C3)cc1` [Example 6, (1R,3S,4R)-3-Phenyl-2-oxa-5-azabicyclo[2.2.1]heptane] the same measures were 1.54 µM and 0.814 µM.
On the same counts, the results for `CCOc1ccc(NC(=O)c2ccc([C@@H]3O[C@H]4CN[C@@H]3C4)cc2)cc1` [Example 88, N-(4-Ethoxyphenyl)-4-[(1R,3S,4R)-2-oxa-5-azabicyclo[2.2.1]heptan-3-yl]benzamide] are 0.0255 µM and greater than 1.45 µM.
On the same counts, the results for `O=C(Nc1ccc([C@H]2O[C@@H]3CN[C@H]2C3)cc1)c1ccc(OCC(F)(F)F)cn1` [Example 51, N-[4-[(1S,3R,4S)-2-Oxa-5-azabicyclo[2.2.1]heptan-3-yl]phenyl]-5-(2,2,2-trifluoroethoxy)pyridine-2-carboxamide] are 0.0034 µM and 0.0438 µM.
As for `FC(F)(F)c1cc(Nc2ccc([C@H]3O[C@@H]4CN[C@H]3C4)cc2)ccn1` [Example 35, N-[4-[(1S,3R,4S)-2-Oxa-5-azabicyclo[2.2.1]heptan-3-yl]phenyl]-2-(trifluoromethyl)pyridin-4-amine], the Ki on mouse TAAR1 is 0.011 µM; on rat TAAR1, 0.819 µM.
`CC(C)c1cc(C(=O)Nc2ccc([C@H]3O[C@@H]4CN[C@H]3C4)cc2)[nH]n1` [Example 43, 3-Isopropyl-N-[4-[(1S,3R,4S)-2-oxa-5-azabicyclo[2.2.1]heptan-3-yl]phenyl]-1H-pyrazole-5-carboxamide]: the figures for the Ki at mouse TAAR1 and at rat TAAR1 were 0.0144 µM and 0.167 µM, respectively.
For `Brc1ccc([C@H]2O[C@@H]3CN[C@H]2C3)cc1` [Example 53, (1S,3R,4S)-3-(4-Bromophenyl)-2-oxa-5-azabicyclo[2.2.1]heptane] the same measures were 0.0034 µM and 0.0052 µM.
For `O=C(Nc1ccc([C@H]2O[C@@H]3CN[C@H]2C3)cc1)c1cnc(C2CC2)nc1` [Example 18, 2-Cyclopropyl-N-[4-[(1S,3R,4S)-2-oxa-5-azabicyclo[2.2.1]heptan-3-yl]phenyl]pyrimidine-5-carboxamide], the Ki on mouse TAAR1 came out at 0.038 µM; on rat TAAR1, 2.03 µM.
As for `CCN(C[C@H]1COC(N)=N1)c1ccccc1` [reference compound], the Kd (commonly the constant that tells how readily two partners part at equilibrium) on mouse TAAR1 (read-out: dissociation constant (Kd) of the TAAR1 radioligand, mouse TAAR1 membranes, saturation curve, usual value) was roughly 0.7 nM; at rat TAAR1 (read-out: dissociation constant (Kd) of the TAAR1 radioligand, rat TAAR1 membranes, saturation curve, usual value), roughly 2.3 nM.
Turning to `O=C(NCc1ccc(C(F)(F)F)cc1)c1ccc([C@@H]2O[C@H]3CN[C@@H]2C3)cc1` [Example 96, 4-[(1R,3S,4R)-2-Oxa-5-azabicyclo[2.2.1]heptan-3-yl]-N-[[4-(trifluoromethyl)phenyl]methyl]benzamide], the Ki on mouse TAAR1 is 0.0477 µM; at rat TAAR1 it was greater than 1.45 µM.
With `O=C(Nc1ccc([C@@H]2O[C@H]3CN[C@@H]2C3)cc1)c1[nH]nc(C2CC2)c1Cl` [Example 82, 4-Chloro-3-cyclopropyl-N-[4-[(1R,3S,4R)-2-oxa-5-azabicyclo[2.2.1]heptan-3-yl]phenyl]-11H-pyrazole-5-carboxamide], the Ki was found to be 0.0035 µM at mouse TAAR1 (setting [1]) and 0.0339 µM on rat TAAR1 (setting [2]).
As for `O=C(Nc1ccc([C@H]2O[C@@H]3CN[C@H]2C3)cc1)c1ccc(OCC2CC2)cc1` [Example 32, 4-(Cyclopropylmethoxy)-N-[4-[(1S,3R,4S)-2-oxa-5-azabicyclo[2.2.1]heptan-3-yl]phenyl]benzamide], the Ki at mouse TAAR1 came out at 0.0063 µM; at rat TAAR1, 0.164 µM.
On the same counts, the results for `O=C(Nc1ccc(F)cc1)c1ccc([C@@H]2O[C@H]3CN[C@@H]2C3)cc1` [Example 87, N-(4-Fluorophenyl)-4-[(1R,3S,4R)-2-oxa-5-azabicyclo[2.2.1]heptan-3-yl]benzamide] are 0.145 µM and greater than 1.45 µM.
With `CC(C)Cc1n[nH]c(C(=O)Nc2ccc([C@@H]3O[C@H]4CN[C@@H]3C4)cc2)c1F` [Example 100, 4-Fluoro-3-isobutyl-N-[4-[(1R,3S,4R)-2-oxa-5-azabicyclo[2.2.1]heptan-3-yl]phenyl]-11H-pyrazole-5-carboxamide], the Ki was 0.0059 µM on mouse TAAR1 (setting [1]) and 0.0278 µM at rat TAAR1 (setting [2]).
As for `O=C(Nc1ccc([C@@H]2O[C@H]3CN[C@@H]2C3)cc1)c1cnc(C2CC2)nc1` [Example 29, 2-Cyclopropyl-N-[4-[(1R,3S,4R)-2-oxa-5-azabicyclo[2.2.1]heptan-3-yl]phenyl]pyrimidine-5-carboxamide], the figures for the Ki on mouse TAAR1 and at rat TAAR1 were 0.0315 µM and 0.0438 µM, respectively.
`O=C(Nc1ccc([C@@H]2O[C@H]3CN[C@@H]2C3)cc1)c1[nH]nc(C2CC2)c1F` [Example 77, 3-Cyclopropyl-4-fluoro-N-[4-[(1R,3S,4R)-2-oxa-5-azabicyclo[2.2.1]heptan-3-yl]phenyl]-11H-pyrazole-5-carboxamide]: the values for the Ki at mouse TAAR1 (setting [1]) and at rat TAAR1 (setting [2]) were 0.0048 µM and 0.137 µM, respectively.
For `O=C(Nc1ccc(Cl)nc1)c1ccc([C@H]2O[C@@H]3CN[C@H]2C3)cc1` [Example 60, N-(6-Chloro-3-pyridyl)-4-[(1S,3R,4S)-2-oxa-5-azabicyclo[2.2.1]heptan-3-yl]benzamide], the Ki at mouse TAAR1 came to 0.0033 µM; on rat TAAR1, 5.34 µM.
Take `CCCCc1n[nH]c(C(=O)Nc2ccc([C@@H]3O[C@H]4CN[C@@H]3C4)cc2)c1F` [Example 92, 3-Butyl-4-fluoro-N-[4-[(1R,3S,4R)-2-oxa-5-azabicyclo[2.2.1]heptan-3-yl]phenyl]-111H-pyrazole-5-carboxamide]: the Ki on mouse TAAR1 (setting [1]) stood at 0.0033 µM; on rat TAAR1 (setting [2]), 0.0879 µM.
